Data from PMC9721052, “AHL-Priming Protein 1 mediates N-3-oxo-tetradecanoyl-homoserine lactone priming in Arabidopsis” (BMC Biology, 2022).

Molecular target: T1, ALI1 (AHL-Priming Protein 1; AtGlcAK2, formerly AtGALK2) (Arabidopsis thaliana, UniProt Q9LY82)
T1 construct: gene GLCAK2; full ORF amplified from Col-0 cDNA, pDEST17, N-terminal 6xHis kept, expressed in E. coli BL21, Ni-NTA purified; GST-ALI1 also made for the biosensor assay
T1 sequence (Q9LY82 1-366): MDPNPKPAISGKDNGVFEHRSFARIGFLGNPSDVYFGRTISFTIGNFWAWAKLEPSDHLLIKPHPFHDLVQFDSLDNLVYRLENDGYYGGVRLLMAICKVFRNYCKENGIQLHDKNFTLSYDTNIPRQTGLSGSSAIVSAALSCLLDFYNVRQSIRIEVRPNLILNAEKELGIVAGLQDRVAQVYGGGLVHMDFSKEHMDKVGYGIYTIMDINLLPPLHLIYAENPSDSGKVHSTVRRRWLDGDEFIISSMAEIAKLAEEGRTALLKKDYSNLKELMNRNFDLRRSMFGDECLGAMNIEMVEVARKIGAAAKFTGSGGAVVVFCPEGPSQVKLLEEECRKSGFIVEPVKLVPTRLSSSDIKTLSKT
Test: sequestration of free ligand read by biosensor E. coli LuxCDABE luminescence
Format: binding
Settings: 6 nmol protein, 0-18 nmol ligand, overnight; indirect assay, MST and nanoDSF by the same authors did not confirm

CCCCCCCCCCCC(=O)CC(=O)N[C@H]1CCOC1=O [oxo-C14-HSL]
sequestration of free ligand read by biosensor E. coli LuxCDABE luminescence: equivalently able to sequestrate oxo-C14-HSL molecule from the solution
